Laboratory results taken from patent US8722629B2, “Auristatin derivatives and use thereof” (Seattle Genetics, Inc., priority 2010, dated 2014).
Structures can show the parent of a compound that is named as a salt. Starred links: 1 amine or outer side, 2 acyl side, 3 side chain; linkers in the order of their positions; H or OH if unused. Non-standard residues stand in square brackets, D forms with d. Residues, ends and D or L forms follow the SMILES beside them. *: point of attachment. Dolaproine = CO[C@@H]([C@@H]1CCCN1)[C@@H](C)C(=O)O; X2 = C[C@@H](c1ccccc1)[C@H](N[*:1])C(=O)[*:2]; X1 = O=C([C@]1(N[*:1])C[C@@H]1c1ccccc1)[*:2]; X4 = O=C([C@]1(N[*:1])C[C@H]1c1ccccc1)[*:2]; Dil = CC[C@H](C)[C@H](NC)[C@@H](CC(=O)O)OC; αMeF = C[C@](N)(Cc1ccccc1)C(=O)O; Oxazinan2yl(1,2) = C1CCN(*)OC1; NMeV = CN[C@H](C(=O)O)C(C)C; X3 = c1ccc2c(c1)CON(*)C2

Tests used:
[1] = tested on: human colon carcinoma cell line HT29 wt (wild type); assay: Antiproliferative effect on the HT29 wt cell line (MTT assay); assay type: cell-based; details: Homo sapiens, HT-29, HT29 wt cells, 10% FCS, incubation 48 h to 96 h
Experimental: B-2. Determination of the Antiproliferative Effect on the HT29 Wt Cell Line:
A defined cell number of the human colon carcinoma cell line HT29 wt (wild type) was sown in a 96-well microtiter plate in complete medium (10% FCS-RPMI) (2500 cells/well) and incubated at 37° C./5% CO2 overnight. After 18 h, the sowing medium was replaced by fresh medium with 10% FCS. Treatment was initiated by addition of the respective test substance. From the substances to be investigated, dose/activity curves in a concentration range of from 10^−5 M to 10^−14 M (1:10-dilution series) were determined. The chosen incubation times were from 48 h to 96 h. Pro-liferation was determined with the aid of the MTT assays (ATCC, Manassas, Va., USA, catalogue No. 30-1010K). After the incubation time, the MTT reagent was incubated with the cells for 4 h, and the cells were subsequently lysed by adding the detergent overnight. The dye formed was detected at 570 nm. Proliferation of cells which had not been treated with test substance, but had otherwise been treated identically, was defined as 100%. The data obtained from this test are triple determinations, and at least two independent experiments were carried out.

[2] = tested on: human renal cancer cell line 786-0; assay: Antiproliferative effect on the 786-0 RCC cell line (MTT assay); assay type: cell-based; details: Homo sapiens, 786-0, 786-0 cells, incubation 48 h to 96 h
Experimental: B-1. Determination of the Antiproliferative Effect on the 786-0 RCC Cell Line:
A defined cell number of the human renal cancer cell line 786-0 was sown in a 96-well microtiter plate in complete medium (2500 or 7000 cells/well) and incubated at 37° C./5% CO2 overnight. After 18 h, the sowing medium was replaced by serum-free medium or medium with 2% FCS. Treatment was initiated by addition of the respective test substance in varying concentration (10^−5 M to […]). The chosen incubation times were from 48 h to 96 h. Proliferation was determined with the aid of the MTT assays (ATCC, Manassas, Va., USA, catalogue No. 30-1010K). After the incubation time, the MTT reagent was incubated with the cells for 4 h, and the cells were subsequently lysed by adding the detergent overnight. The dye formed was detected at 570 nm. […] The data obtained from this test are triple determinations, and at least two independent experiments were carried out.

[3] = Plasma stability in vitro, rat plasma; assay type: in vitro ADME; details: 37° C.; for half-life at 39.2 µg/ml: male, Wistar, rat plasma (Li heparin), Method A (HPLC)
Experimental: (§1) B-4. Determination of the Plasma Stability in vitro:
(§2) 1 mg of the test substance in question was dissolved in 0.5 ml of acetonitrile/DMSO (9:1). From this solution, 20 μl were removed and added to 1 ml of rat or human plasma at 37° C. (plasma of male Wistar rats with Li heparin from Harlan & Winkelmann or fresh human leukocyte-depleted plasma originating from a whole blood sample). From this plasma solution, which was shaken vigorously, 100 μl aliquots were removed immediately after addition of the sample (initial value as reference) and then after 5, 10, 30, 60, 120, 180 and 240 minutes and optionally after 24 hours and added to 300 μl of acetonitrile. The precipitated plasma proteins were removed by centrifugation at 5000 rpm for 10 minutes, and 30 μl of the supernatant were analysed by HPLC for its content of unmodified test substance. Quantification was via the area percentages of the corresponding peaks.
HPLC Method for Rat Plasma:
Instrument: Agilent 1200 with DAD, binary pump, autosampler, column oven and thermostat; column: Kromasil 100 C18, 250 mm×4 mm, […]; column temperature: 45° C.; mobile phase A: 5 ml of perchloric acid/1 of water, mobile phase B: acetonitrile; gradient: 0-8 min 98% A, 2% B; 8-15 min 56% A, 44% B; […] 10% A, 90% B; 20-21 min 10% A, 90% B; […] 98% A, 2% B; […] 98% A, 2% B; flow rate: 2 ml/min; UV detection: 220 nm.
(§3) The test substance was incubated in rat or human plasma at 37° C. over a period of 5 h with gentle stirring. At different points in time (0, 2, 5, 10, 20, 30, 60, 120, 180 and 300 minutes), a 100 μl aliquot was removed. Following addition of internal standard (10 μl), the proteins were precipitated by addition of 200 μl of acetonitrile and the mixture was centrifuged in an Eppendorf centrifuge for 5 minutes. After addition of 150 μl of ammonium acetate buffer pH 3 to 150 μl of the supernatant, the content of unmodified test substance was analysed by LC/MSMS.

[4] = Plasma stability in vitro, human plasma; assay type: in vitro ADME
Experimental: as §1, §2
HPLC Method for Human Plasma:
Instrument: Agilent 1100 with DAD, binary pump, autosampler, column oven and thermostat;
column: Kromasil 100 C18, 250 mm×4 mm, 5 μm; column temperature: 45° C.; mobile phase A: 5 ml of perchloric acid/1 of water, mobile phase B: acetonitrile; gradient: 0-3 min 98% A, 2% B; 3-10 min 65% A, 35% B; 10-15 min 40% A, 60% B; 15-21 min 10% A, 90% B; 21-22 min 10% A, 90% B; 22-24 min 98% A, 2% B; 24-26 min 98% A, 2% B; flow rate: 2 ml/min; UV detection: 220 nm.
as §3

Structure (SMILES)	IC50 [1] [nM]	IC50 [2] [nM]	half-life at 39.2 µg/ml [3] [h]	degradation in human plasma after 24 h [4]	further results
CC[C@H](C)[C@@H]([C@@H](CC(=O)N1CCC[C@H]1[C@H](OC)[C@@H](C)C(=O)N[C@@]1(C(=O)N2CCCCO2)C[C@@H]1c1ccccc1)OC)N(C)C(=O)[C@@H](NC(=O)[C@@H](NC)C(C)C)C(C)C [Example 17, N-Methyl-L-valyl-N-[(3R,4S,5S)-3-methoxy-1-{(2S)-2-[(1R,2R)-1-methoxy-2-methyl-3-{[(1S,2R)-1-(1,2-oxazinan-2-ylcarbonyl)-2-phenylcyclopropyl]amino}-3-oxopropyl]pyrrolidin-1-yl}-5-methyl-1-oxoheptan-4-yl]-N-methyl-L-valinamide, trifluoroacetic acid salt] (H-[NMeV]V[Dil][Dolaproine][X1]-{Oxazinan2yl(1,2)})	0.5	4	> 24	no degradation was observed	–
CC[C@H](C)[C@@H]([C@@H](CC(=O)N1CCC[C@H]1[C@H](OC)[C@@H](C)C(=O)N[C@@]1(C(=O)N2CCCCO2)C[C@H]1c1ccccc1)OC)N(C)C(=O)[C@@H](NC(=O)[C@@H](NC)C(C)C)C(C)C [Example 16, N-Methyl-L-valyl-N-[(3R,4S,5S)-3-methoxy-1-{(2S)-2-[(1R,2R)-1-methoxy-2-methyl-3-{[(1S,2S)-1-(1,2-oxazinan-2-ylcarbonyl)-2-phenylcyclopropyl]amino}-3-oxopropyl]pyrrolidin-1-yl}-5-methyl-1-oxoheptan-4-yl]-N-methyl-L-valinamide, trifluoroacetic acid salt] (H-[NMeV]V[Dil][Dolaproine][X4]-{Oxazinan2yl(1,2)})	–	8	0.75	–	–
CC[C@H](C)[C@@H]([C@@H](CC(=O)N1CCC[C@H]1[C@H](OC)[C@@H](C)C(=O)N[C@H](C(=O)N1CCCCO1)[C@@H](C)c1ccccc1)OC)N(C)C(=O)[C@@H](NC(=O)[C@@H](NC)C(C)C)C(C)C [Example 4, N-Methyl-L-valyl-N-[(3R,4S,5S)-3-methoxy-1-{(2S)-2-[(1R,2R)-1-methoxy-2-methyl-3-{[(2S,3S)-1-(1,2-oxazinan-2-yl)-1-oxo-3-phenylbutan-2-yl]amino}-3-oxopropyl]pyrrolidin-1-yl}-5-methyl-1-oxoheptan-4-yl]-N-methyl-L-valinamide, trifluoroacetic acid salt] (H-[NMeV]V[Dil][Dolaproine][X2]-{Oxazinan2yl(1,2)})	0.2	14	–	–	half-life ([3]; Method B (LC/MSMS)): 3 h
CC[C@H](C)[C@@H]([C@@H](CC(=O)N1CCC[C@H]1[C@H](OC)[C@@H](C)C(=O)N[C@@H](Cc1ccccc1)C(=O)OC)OC)N(C)C(=O)[C@@H](NC(=O)[C@@H](NC)C(C)C)C(C)C [MMAF-OMe, Monomethylauristatin F methyl ester, reference compound] (H-[NMeV]V[Dil][Dolaproine]F-OMe)	–	–	–	–	t1/2 ([3]; Method A): < 1 min; degraded in human plasma during 24 h [4]: about 20%
CC[C@H](C)[C@@H]([C@@H](CC(=O)N1CCC[C@H]1[C@H](OC)[C@@H](C)C(=O)N[C@H](Cc1ccccc1)C(=O)N1CCCCO1)OC)N(C)C(=O)[C@@H](NC(=O)[C@@H](NC)C(C)C)C(C)C [Example 21, N-Methyl-L-valyl-N-[(3R,4S,5S)-3-methoxy-1-{(2S)-2-[(1R,2R)-1-methoxy-2-methyl-3-{[(2R)-1-(1,2-oxazinan-2-yl)-1-oxo-3-phenylpropan-2-yl]amino}-3-oxopropyl]pyrrolidin-1-yl}-5-methyl-1-oxoheptan-4-yl]-N-methyl-L-valinamide, trifluoroacetic acid salt] (H-[NMeV]V[Dil][Dolaproine][dF]-{Oxazinan2yl(1,2)})	–	–	–	no degradation was observed	–
CC[C@H](C)[C@@H]([C@@H](CC(=O)N1CCC[C@H]1[C@H](OC)[C@@H](C)C(=O)N[C@@H](Cc1ccccc1)C(=O)N1CCCCO1)OC)N(C)C(=O)[C@@H](NC(=O)[C@@H](NC)C(C)C)C(C)C [Example 1, N-Methyl-L-valyl-N-[(3R,4S,5S)-3-methoxy-1-{(2S)-2-[(1R,2R)-1-methoxy-2-methyl-3-{[(2S)-1-(1,2-oxazinan-2-yl)-1-oxo-3-phenylpropan-2-yl]amino}-3-oxopropyl]pyrrolidin-1-yl}-5-methyl-1-oxoheptan-4-yl]-N-methyl-L-valinamide, trifluoroacetic acid salt] (H-[NMeV]V[Dil][Dolaproine]F-{Oxazinan2yl(1,2)})	0.1	4	–	no degradation was observed	–
CC[C@H](C)[C@@H]([C@@H](CC(=O)N1CCC[C@H]1[C@H](OC)[C@@H](C)C(=O)N[C@@]1(C(=O)N2CCCCO2)C[C@@H]1c1ccccc1)OC)N(C)C(=O)[C@@H](NC(=O)[C@H](C(C)C)N(C)CCCC(=O)O)C(C)C [Example 23, N-(3-Carboxypropyl)-N-methyl-L-valyl-N-[(3R,4S,5S)-3-methoxy-1-{(2S)-2-[(1R,2R)-1-methoxy-2-methyl-3-{[(1S,2R)-1-(1,2-oxazinan-2-ylcarbonyl)-2-phenylcyclopropyl]amino}-3-oxopropyl]-pyrrolidin-1-yl}-5-methyl-1-oxoheptan-4-yl]-N-methyl-L-valinamide]	0.7	11	> 24	–	–
CC[C@H](C)[C@@H]([C@@H](CC(=O)N1CCC[C@H]1[C@H](OC)[C@@H](C)C(=O)N[C@@](C)(Cc1ccccc1)C(=O)N1CCCCO1)OC)N(C)C(=O)[C@@H](NC(=O)[C@@H](NC)C(C)C)C(C)C [Example 22, N-Methyl-L-valyl-N-[(3R,4S,5S)-3-methoxy-1-{(2S)-2-[(1R,2R)-1-methoxy-2-methyl-3-{[(2S)-2-methyl-1-(1,2-oxazinan-2-yl)-1-oxo-3-phenylpropan-2-yl]amino}-3-oxopropyl]pyrrolidin-1-yl}-5-methyl-1-oxoheptan-4-yl]-N-methyl-L-valinamide, trifluoroacetic acid salt] (H-[NMeV]V[Dil][Dolaproine][αMeF]-{Oxazinan2yl(1,2)})	–	–	2	–	–
CC[C@H](C)[C@@H]([C@@H](CC(=O)N1CCC[C@H]1[C@H](OC)[C@@H](C)C(=O)N[C@@]1(C(=O)N2Cc3ccccc3CO2)C[C@@H]1c1ccccc1)OC)N(C)C(=O)[C@@H](NC(=O)[C@@H](NC)C(C)C)C(C)C [Example 18, N-Methyl-L-valyl-N-[(3R,4S,5S)-1-{(2S)-2-[(1R,2R)-3-{[(1S,2R)-1-(1,4-dihydro-3H-2,3-benzoxazin-3-ylcarbonyl)-2-phenylcyclopropyl]amino}-1-methoxy-2-methyl-3-oxopropyl]pyrrolidin-1-yl}-3-methoxy-5-methyl-1-oxoheptan-4-yl]-N-methyl-L-valinamide, trifluoroacetic acid salt] (H-[NMeV]V[Dil][Dolaproine][X1]-X3)	1.2	–	> 24	–	–
